Test results as given in publication PMC6364417, “Kinase inhibitor library screening identifies synergistic drug combinations effective in sensitive and resistant melanoma cells” (Journal of Experimental & Clinical Cancer Research : CR, 2019).

Assays:
Assay in all cases: Kinase inhibitor library screening, PrestoBlue cell viability, 1 or 10 μM, 72 h
A375 cells (parental) = details: A375 Parental
[1] = test system: IGR37-XP cells (Vemurafenib-resistant); details: IGR37 XP
[2] = test system: IGR37-GP cells (Dabrafenib-resistant); details: IGR37 GP
[3] = test system: A375-XP cells (Vemurafenib-resistant); details: A375 XP
IGR37 cells (parental) = details: IGR37 Parental
501Mel cells (parental) = details: 501Mel Parental
Outline: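 Kinase inhibitors added at two fixed concentrations; 72 h exposure; PrestoBlue readout; % viability vs untreated; n ≥ 2 per line.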

[4] = test system: A375-GP cells (Dabrafenib-resistant); details: A375 GP
[5] = test system: 501Mel-GP cells (Dabrafenib-resistant); details: 501Mel GP
[6] = test system: 501Mel-XP cells (Vemurafenib-resistant); details: 501Mel XP

## COc1ccc(COc2cc3oc(=O)c4cc(C(C)O)ccc4c3cc2OC)cc1 (centres unmarked) [Palomid 529]
A375 cells (parental); 10μΜ, 72 h
  Cell viability in kinase inhibitor library screening, A375 Parental, 10μΜ: 83.6
[1]; 10μΜ, 72 h
  Cell viability in kinase inhibitor library screening, IGR37 XP, 10μΜ: 46.5%
[1]; 1μΜ, 72 h, in %
  Cell viability in kinase inhibitor library screening, IGR37 XP, 1μΜ: 98.2
[2]; 10μΜ, 72 h
  Cell viability in kinase inhibitor library screening, IGR37 GP, 10μΜ: 75.1%
[2]; 1μΜ, 72 h, in %
  Cell viability in kinase inhibitor library screening, IGR37 GP, 1μΜ: 87.7
[3]; 1μΜ, 72 h
  Cell viability in kinase inhibitor library screening, A375 XP, 1μΜ: 100.3
[3]; 10μΜ, 72 h
  Cell viability in kinase inhibitor library screening, A375 XP, 10μΜ: 90.5
IGR37 cells (parental); 1μΜ, 72 h, in %
  Cell viability in kinase inhibitor library screening, IGR37 Parental, 1μΜ: 102.9
IGR37 cells (parental); 10μΜ, 72 h, in %
  Cell viability in kinase inhibitor library screening, IGR37 Parental, 10μΜ: 103.1
501Mel cells (parental); 1μΜ, 72 h, in %
  Cell viability in kinase inhibitor library screening, 501Mel Parental, 1μΜ: 87.4
501Mel cells (parental); 10μΜ, 72 h, in %
  Cell viability in kinase inhibitor library screening, 501Mel Parental, 10μΜ: 80.1
[4]; 1μΜ, 72 h
  Cell viability in kinase inhibitor library screening, A375 GP, 1μΜ: 94.7
[4]; 10μΜ, 72 h
  Cell viability in kinase inhibitor library screening, A375 GP, 10μΜ: 88.6
[5]; 1μΜ, 72 h, in %
  Cell viability in kinase inhibitor library screening, 501Mel GP, 1μΜ: 90.2
[5]; 10μΜ, 72 h, in %
  Cell viability in kinase inhibitor library screening, 501Mel GP, 10μΜ: 80.5
[6]; 1μΜ, 72 h, in %
  Cell viability in kinase inhibitor library screening, 501Mel XP, 1μΜ: 95.5
[6]; 10μΜ, 72 h, in %
  Cell viability in kinase inhibitor library screening, 501Mel XP, 10μΜ: 30.6

## CN(C)CCOc1ccc(-c2nc(-c3ccncc3)c(-c3ccc4c(c3)CC/C4=N\O)[nH]2)cc1 [SB590885]
A375 cells (parental); 1μΜ, in %
  cell viability (kinase inhibitor library screening): 38.0
A375 cells (parental); 10μΜ, in %
  cell viability (kinase inhibitor library screening): 33.1
[1]; 10μΜ, in %
  cell viability (kinase inhibitor library screening): 30.0
[2]; 10μΜ, in %
  cell viability (kinase inhibitor library screening): 79.6
[3]; 1μΜ, in %
  cell viability (kinase inhibitor library screening): 71.7
[3]; 10μΜ, in %
  cell viability (kinase inhibitor library screening): 18.9
IGR37 cells (parental); 1μΜ, in %
  cell viability (kinase inhibitor library screening): 52.0
IGR37 cells (parental); 10μΜ, in %
  cell viability (kinase inhibitor library screening): 40.7
501Mel cells (parental); 1μΜ, in %
  cell viability (kinase inhibitor library screening): 74.7
501Mel cells (parental); 10μΜ, in %
  cell viability (kinase inhibitor library screening): 0.649
[4]; 1μΜ, in %
  cell viability (kinase inhibitor library screening): 73.8
[4]; 10μΜ, in %
  cell viability (kinase inhibitor library screening): 25.8
[5]; 1μΜ, in %
  cell viability (kinase inhibitor library screening): 110.5
[5]; 10μΜ, in %
  cell viability (kinase inhibitor library screening): 0.56
[6]; 1μΜ, in %
  cell viability (kinase inhibitor library screening): 121.3
[6]; 10μΜ, in %
  cell viability (kinase inhibitor library screening): 0.7

## Cc1cnc(Nc2ccc(N3CCN(C)CC3)cc2)nc1Nc1cccc(S(=O)(=O)NC(C)(C)C)c1 [TG101209]
A375 cells (parental); 1μΜ, 72 h, in %
  cell viability, A375 Parental, 1μΜ: 87.8
A375 cells (parental); 10μΜ, 72 h, in %
  cell viability, A375 Parental, 10μΜ: 11.9
[1]; 10μΜ, 72 h
  cell viability, IGR37 XP, 10μΜ: 1.6%
[1]; 1μΜ, 72 h, in %
  cell viability, IGR37 XP, 1μΜ: 82.7
[2]; 10μΜ, 72 h
  cell viability, IGR37 GP, 10μΜ: 3.2%
[2]; 1μΜ, 72 h, in %
  cell viability, IGR37 GP, 1μΜ: 98.5
[3]; 1μΜ, 72 h, in %
  cell viability, A375 XP, 1μΜ: 93.3
[3]; 10μΜ, 72 h, in %
  cell viability, A375 XP, 10μΜ: 13.1
IGR37 cells (parental); 1μΜ, 72 h, in %
  cell viability, IGR37 Parental, 1μΜ: 97.5
IGR37 cells (parental); 10μΜ, 72 h, in %
  cell viability, IGR37 Parental, 10μΜ: 6.5
501Mel cells (parental); 10μΜ, 72 h, in %
  cell viability, 501Mel Parental, 10μΜ: 0.6
[4]; 1μΜ, 72 h, in %
  cell viability, A375 GP, 1μΜ: 79.9
[4]; 10μΜ, 72 h, in %
  cell viability, A375 GP, 10μΜ: 14.4
[5]; 1μΜ, 72 h, in %
  cell viability, 501Mel GP, 1μΜ: 109.4
[5]; 10μΜ, 72 h, in %
  cell viability, 501Mel GP, 10μΜ: 1.7
[6]; 1μΜ, 72 h, in %
  cell viability, 501Mel XP, 1μΜ: 85.2
[6]; 10μΜ, 72 h, in %
  cell viability, 501Mel XP, 10μΜ: -0.127

## O=C(O)c1ccc(Nc2ncc3c(n2)-c2ccc(Cl)cc2C(c2c(F)cccc2F)=NC3)cc1 [MLN8054]
A375 cells (parental); 10μΜ, 72 h
  cell viability (kinase inhibitor library screening): 41.6%
A375 cells (parental); 1μΜ, 72 h
  cell viability (kinase inhibitor library screening): 66.5%
[1]; 1μΜ, 72 h
  cell viability (kinase inhibitor library screening): 94.1%
[1]; 10μΜ, 72 h
  cell viability (kinase inhibitor library screening): 42.0%
[2]; 1μΜ, 72 h
  cell viability (kinase inhibitor library screening): 94.0%
[2]; 10μΜ, 72 h
  cell viability (kinase inhibitor library screening): 66.7%
[3]; 1μΜ, 72 h
  cell viability (kinase inhibitor library screening): 75.7%
[3]; 10μΜ, 72 h
  cell viability (kinase inhibitor library screening): 52.2%
IGR37 cells (parental); 1μΜ, 72 h
  cell viability (kinase inhibitor library screening): 98.2%
IGR37 cells (parental); 10μΜ, 72 h
  cell viability (kinase inhibitor library screening): 64.8%
501Mel cells (parental); 1μΜ, 72 h
  cell viability (kinase inhibitor library screening): 86.3%
501Mel cells (parental); 10μΜ, 72 h
  cell viability (kinase inhibitor library screening): 77.0%
[4]; 1μΜ, 72 h
  cell viability (kinase inhibitor library screening): 70.2%
[4]; 10μΜ, 72 h
  cell viability (kinase inhibitor library screening): 45.2%
[5]; 1μΜ, 72 h
  cell viability (kinase inhibitor library screening): 86.0%
[5]; 10μΜ, 72 h
  cell viability (kinase inhibitor library screening): 65.6%
[6]; 1μΜ, 72 h
  cell viability (kinase inhibitor library screening): 74.5%
[6]; 10μΜ, 72 h
  cell viability (kinase inhibitor library screening): 59.4%
